Assay results: patent US8088574B2, “Poly(A) polymerase” (Wisconsin Alumni Research Foundation, priority 2007, dated 2012)
Entries after “also recorded” stand apart in the source; their conditions may differ.

Key:
[1] = tested on: T1, Star-PAP complex-associated kinase activity (CKI); assay: in vitro protein kinase assay of purified FLAG-Star-PAP complex: phosphorylation of Star-PAP by the complex-associated kinase activity; assay type: biochemical, Human; conditions: for phosphorylation of Star-PAP by the complex-associated kinase activity: inhibitor 0.1-100 μM, 45 minutes on ice before ATP
T1 construct: other: PI4,5P2 micelles, 12.5-100 μM; phosphorylation of Star-PAP by the complex-associated kinase activity; Flag-Star-PAP and FLAG-PAPα were expressed in HEK 293 cells and purified on anti-FLAG M2 resin
Experimental: Synthetic PI4,5P2 (Echelon Biosciences Inc.) was resuspended in 50 mM Tris-HCL pH 7.9 at 2.5 mM and subjected to bath sonication to form micelles and used at final concentration of 12.5-100 μM.
The kinase assays were performed as described above in section 8 for the Star-PAP complexes. Except for inhibitor studies, all reaction components except ATP were incubated with inhibitors for 45 minutes on ice prior to starting the assay.

[2] = target: Star-PAP complex-associated kinase activity (CKI); conditions: printed beside inhibitor name/vendor and in FIG. 23 legend; inhibitors used at 0.1-100 μM on FLAG-Star-PAP complex; cited from earlier work
HO-1 mRNA = assay: quantitative real-time PCR of HO-1 mRNA in HEK 293 cells; conditions: HEK 293 cells pretreated with CKI inhibitor (IC261 50 μM, CKI-7 250 μM, 2.5 h)
CKIα = target: T2, CKIα (Rattus norvegicus, UniProt P97633); assay: in vitro phosphorylation of heat inactivated FLAG-Star-PAP by purified FLAG-CKIα; assay type: biochemical; conditions: 50 μM
T2 construct: made in house; host or cells: HEK 293 cells
T2 sequence (P97633 1-325): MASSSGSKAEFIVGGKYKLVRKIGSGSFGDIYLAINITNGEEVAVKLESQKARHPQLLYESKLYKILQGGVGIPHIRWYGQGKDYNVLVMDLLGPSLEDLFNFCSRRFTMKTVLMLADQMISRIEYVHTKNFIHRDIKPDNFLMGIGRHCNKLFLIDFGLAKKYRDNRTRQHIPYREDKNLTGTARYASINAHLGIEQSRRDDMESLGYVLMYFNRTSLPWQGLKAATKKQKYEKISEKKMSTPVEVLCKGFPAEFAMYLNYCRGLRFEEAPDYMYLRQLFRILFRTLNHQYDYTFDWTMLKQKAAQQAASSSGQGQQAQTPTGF
Experimental: Flag-Star-PAP and FLAG-PAPα were expressed in HEK 293 cells and purified on anti-FLAG M2 resin. Purified PAP complexes were subject to an in vitro protein kinase assay as follows. Protein kinase assays were performed in 1× kinase buffer (50 mM Tris-HCl pH 7.5, 10 mM MgCl2 and 0.5 mM EGTA). Assays were initiated by the addition of 10 μM ATP and 5 μCi γ^32P ATP to the reaction mix. Substrates included 100 μg/ml of the generic protein kinase substrates myelin basic protein (MBP) or casein. Heat inactivation of the endogenous kinase activity in the Star-PAP complex was destroyed by heating for 15 minutes at 65° C. The Star-PAP purified complex contained protein kinase activity toward both MBP and casein while the PAPα complex contained almost no detectable protein kinase activity (FIG. 19).
Casein Kinase Iα (CKIα), is a protein kinase found in nuclear speckles; moreover, CKIα activity is inhibited by PI4,5P2. […] FLAG proteins were expressed and purified as follows. Human Star-PAP and rat CKIα cDNAs were cloned in to the pFLAG-1 mammalian expression vector (Sigma). […]
Before the phosphorylation assay, endogenous kinase activity in the FLAG complex was destroyed by heat inactivation; no detectable phosphorylation activity was detected after heat inactivation. […]

Star-PAP complex = target: T3, Star-PAP complex (Homo sapiens, UniProt Q9H6E5, D66G); assay: PAP assay with Star-PAP complex purified from stably expressing HEK-293 cells treated with tBHQ; assay type: cell-based
T3 construct: made in house; host or cells: HEK-293 cells stably expressing FLAG-Star-PAP, treated with tBHQ before purification
T3 sequence (Q9H6E5 1-874 D66G): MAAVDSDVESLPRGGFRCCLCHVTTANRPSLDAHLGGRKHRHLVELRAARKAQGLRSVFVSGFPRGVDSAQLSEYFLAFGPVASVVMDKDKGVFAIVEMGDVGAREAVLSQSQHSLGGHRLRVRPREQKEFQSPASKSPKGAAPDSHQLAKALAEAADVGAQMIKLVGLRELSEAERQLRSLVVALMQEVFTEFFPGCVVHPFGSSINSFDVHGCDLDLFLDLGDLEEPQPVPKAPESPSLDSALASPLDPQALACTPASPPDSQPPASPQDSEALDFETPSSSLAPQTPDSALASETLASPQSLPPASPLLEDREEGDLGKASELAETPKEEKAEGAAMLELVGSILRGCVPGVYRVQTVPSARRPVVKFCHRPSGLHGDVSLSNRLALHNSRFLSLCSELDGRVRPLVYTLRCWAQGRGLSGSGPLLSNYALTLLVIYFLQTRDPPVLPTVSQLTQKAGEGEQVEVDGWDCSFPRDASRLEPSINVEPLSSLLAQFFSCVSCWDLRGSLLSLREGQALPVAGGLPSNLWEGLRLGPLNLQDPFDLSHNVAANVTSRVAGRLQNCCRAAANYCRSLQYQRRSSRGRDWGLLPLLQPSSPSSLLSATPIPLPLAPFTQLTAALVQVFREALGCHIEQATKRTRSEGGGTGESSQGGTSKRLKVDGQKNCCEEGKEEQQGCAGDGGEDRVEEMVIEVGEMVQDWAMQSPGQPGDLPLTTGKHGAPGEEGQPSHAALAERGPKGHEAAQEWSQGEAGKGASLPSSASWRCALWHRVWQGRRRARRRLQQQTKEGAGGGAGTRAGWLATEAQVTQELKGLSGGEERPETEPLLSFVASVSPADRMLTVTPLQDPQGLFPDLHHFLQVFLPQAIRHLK
From the text: Treatment of cells with tBHQ caused a large increase in Star-PAP complex activity for the initiation of polyadenylation. […] PI4,5P2 produced by PIPKIα in the complex may then control the processivity of Star-PAP, resulting in a lengthened poly(A) tail. In this manner Star-PAP may respond to oxidative stress signals, and potential other signals, to efficiently regulate the 3′ end formation and polyadenylation by the Star-PAP complex.

Star-PAP = target: T4, Star-PAP (Homo sapiens, UniProt Q9H6E5, D66G); assay: in vitro poly(A) polymerase assay with Star-PAP; assay type: biochemical
T4 construct: full length His-Star-PAP was purified over a Ni^++ or glutathione columns; His; T7 tag; made in house; host or cells: E. coli BL21(DE3)
T4 sequence (Q9H6E5 1-874 D66G): T3 sequence (Q9H6E5 1-874 D66G)
From the text: The poly(A) polymerase activity of PIP-PAPs such as Star-PAP, natural or artificial variants, homologues or fragments thereof may be tested by methods known in the art. (See e.g., Kyriakopoulou et al., (2001) J Biol Chem, 276:33504-11).
(§1) As another example, a specific 45 nt RNA oligonucleotide (UAGGGA)5A15 (SEQ ID NO: 22) was designed to serve as an RNA substrate in the poly(A) polymerase assay.
Because Star-PAP associates with the PI4,5P2 generating enzyme PIPKIα; the effect of exogenous phosphoinositides on the in vitro poly(A) polymerase activity of Star-PAP was evaluated. Star-PAP was incubated in the presence of various phosphoinositides (PI, PI3P, PI4P, PI5P, PI3,4P2, PI3,5P2, PI4,5P2 and PI3,4,5P3) or buffer only as a control. Following a brief incubation period the remaining components of the assay were added and allowed to react. In the absence of any phosphoinositide species, Star-PAP was able to extend an RNA primer to generate a modest poly(A) tail. In the presence of PI4,5P2 the incorporation of ATP into poly(A) tails was enhanced. […] This effect was specific for PI4,5P2 as all other inositol phospholipids assayed had no effect on Star-PAP activity in this assay.

[3] = target: yeast canonical poly(A) polymerase (Saccharomyces cerevisiae, UniProt P29468); assay: in vitro poly(A) polymerase assay with yeast canonical poly(A) polymerase control; assay type: biochemical; conditions: (UAGGGA)5A15 primer
Sequence of yeast canonical poly(A) polymerase (P29468 whole entry): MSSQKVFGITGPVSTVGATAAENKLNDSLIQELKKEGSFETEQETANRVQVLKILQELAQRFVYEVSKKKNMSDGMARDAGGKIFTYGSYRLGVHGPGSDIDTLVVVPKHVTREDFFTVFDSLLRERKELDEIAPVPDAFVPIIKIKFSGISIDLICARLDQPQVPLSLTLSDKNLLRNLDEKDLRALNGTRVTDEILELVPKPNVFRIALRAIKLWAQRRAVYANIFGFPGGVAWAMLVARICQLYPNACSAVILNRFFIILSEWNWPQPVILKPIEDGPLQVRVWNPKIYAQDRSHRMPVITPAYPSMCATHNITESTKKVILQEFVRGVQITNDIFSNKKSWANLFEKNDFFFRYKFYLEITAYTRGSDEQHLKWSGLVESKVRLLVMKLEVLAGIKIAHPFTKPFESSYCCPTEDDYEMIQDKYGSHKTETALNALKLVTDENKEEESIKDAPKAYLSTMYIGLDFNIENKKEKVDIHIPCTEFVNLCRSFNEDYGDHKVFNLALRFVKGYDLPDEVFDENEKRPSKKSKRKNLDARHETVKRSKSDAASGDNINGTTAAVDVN
From the text: as §1

PAPα = PAPα (Homo sapiens, UniProt P51003); assay: in vitro poly(A) polymerase assay with PAPα; assay type: biochemical; conditions: 50 μM inositol phospholipid micelles
Sequence of PAPα (P51003 whole entry): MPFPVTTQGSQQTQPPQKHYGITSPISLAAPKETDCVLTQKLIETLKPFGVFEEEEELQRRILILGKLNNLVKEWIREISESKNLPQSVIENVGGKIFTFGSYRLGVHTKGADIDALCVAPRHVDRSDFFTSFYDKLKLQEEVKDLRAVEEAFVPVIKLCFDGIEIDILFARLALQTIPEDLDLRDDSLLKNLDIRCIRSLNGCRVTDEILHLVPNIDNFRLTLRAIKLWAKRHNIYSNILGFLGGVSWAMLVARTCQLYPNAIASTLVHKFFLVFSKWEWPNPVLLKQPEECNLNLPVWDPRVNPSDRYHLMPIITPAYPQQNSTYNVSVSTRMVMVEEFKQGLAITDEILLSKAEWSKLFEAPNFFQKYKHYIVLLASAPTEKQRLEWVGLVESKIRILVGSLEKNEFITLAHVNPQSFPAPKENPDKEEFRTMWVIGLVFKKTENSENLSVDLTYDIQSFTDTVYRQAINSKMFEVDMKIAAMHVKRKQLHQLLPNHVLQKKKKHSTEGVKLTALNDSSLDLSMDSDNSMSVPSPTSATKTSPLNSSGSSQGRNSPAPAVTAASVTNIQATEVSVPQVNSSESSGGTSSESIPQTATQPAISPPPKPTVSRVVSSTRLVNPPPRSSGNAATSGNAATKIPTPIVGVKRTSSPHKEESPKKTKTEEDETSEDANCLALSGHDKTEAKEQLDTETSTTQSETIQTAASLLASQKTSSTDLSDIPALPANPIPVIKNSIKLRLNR

NCCNS(=O)(=O)c1ccc(Cl)c2ccncc12 [CKI-7]
phosphorylation of Star-PAP by the complex-associated kinase activity [1]: block the phosphorylation of Star-PAP by the complex-associated kinase activity in a dose dependent fashion
IC50 [2]: ~6 µM
basal levels of HO-1 mRNA (HO-1 mRNA): reduce HO-1

COc1cc(OC)c(C=C2C(O)=Nc3ccccc32)c(OC)c1 [IC261]
phosphorylation of Star-PAP by the complex-associated kinase activity [1]: block the phosphorylation of Star-PAP by the complex-associated kinase activity in a dose dependent fashion
phosphorylation of Star-PAP by CKIα (CKIα): blocked; also recorded: can block CKIα phosphorylation of Star-PAP
IC50 [2]: 11 µM
basal levels of HO-1 mRNA (HO-1 mRNA): reduce HO-1

CC(C)(C)c1cc(O)ccc1O [tBHQ, tert-butylhydroquinone]
increase in enzymatic activity of Star-PAP complex over Star-PAP from control cells (Star-PAP complex; cells treated with 100 μM tBHQ): more than 15 fold

cordycepin triphosphate
Star-PAP poly(A) polymerase activity with chain terminator (Star-PAP; (UAGGGA)5A15 primer): inhibited in a dose dependent fashion
yeast canonical poly(A) polymerase activity with chain terminator [3]: inhibited in a dose dependent fashion

phosphatidylinositol-4,5-bisphosphate [PI4,5P2]
concentration at which phosphorylation of FLAG-Star-PAP was inhibited (as low as) ([1]; PI4,5P2 micelles, 12.5-100 μM): 12.5 µM
phosphorylation of Star-PAP by CKIα (CKIα): blocked; also recorded: can block CKIα phosphorylation of Star-PAP
effect of phosphoinositide on Star-PAP poly(A) polymerase activity (incorporation of ATP into poly(A) tails) (Star-PAP; 50 μM inositol phospholipid micelles): enhanced
effect of phosphoinositide on PAPα activity (PAPα): no phosphoinositides tested, including PI4,5P2 stimulated the activity of PAPα
Star-PAP processivity (length of the poly(A) tails) (Star-PAP complex; Star-PAP isolated from tBHQ-treated cells, time course): stimulated Star-PAP processivity, increasing the length of the poly(A) tails

B1: Star-PAP: novel PIP-regulated poly(A) polymerase, SEQ ID NO: 2 (protein, listed as Homo sapiens)
chain: T3 sequence (Q9H6E5 1-874 D66G)
specific poly(A) polymerase activity relative to canonical PAPα (Star-PAP; side-by-side with PAPα): 1.3 fold
